Where two headings read alike, the source gives them in different places.
How the values were obtained:
[1] = system: osteosarcoma of the right tibia, lung and pelvic metastasis; experiment: Clinical case Example 7: patient
Procedure: A patient underwent the resection of the lesion on Nov. 7, 2016. On Nov. […] PORT implantation was performed under general anesthesia on Nov. 29, 2016, and the postoperative systemic intravenous adjuvant chemotherapy was performed. […] 1, 2016, and methotrexate (2 cycles of chemotherapy) was administered from Dec. 16, 2016 to Jan. 5, 2017. The CT re-examination performed on Jan. […] Ifosfamide (1 cycle of chemotherapy) was administered on Jan. […] The segmental resection of the tumor of the right proximal tibia, the joint replacement and the transposition of gastrocnemius muscle flap were performed under general anesthesia on Feb. 7, 2017. […] Ifosfamide (1 course of chemotherapy) was administered on Mar. […] Methotrexate was administered on Mar. […] 15, 2017. […] 4, 2017, ifosfamide chemotherapy was given on Jun. […] Methotrexate chemotherapy was given on Jul. […] Ifosfamide chemotherapy was given on Aug. […] The CT re-examination performed on Jan. […] A puncture biopsy of the mass of right femur was performed on Oct.
The patient was treated with anlotinib dihydrochloride capsule (12 mg) once a day via oral administration (2 weeks of continuous administration and 1 week of withdrawal being considered as one treatment cycle) from Nov. 16, 2018. […] 26, 2018.

[2] = system: osteosarcoma (chondroblastic type) of the right proximal humerus, bilateral lung metastasis; experiment: Clinical case Example 6: patient; type: in vivo, human; settings: prior high-dose chemotherapy, 6 courses, Aug-Dec 2016
Procedure: A patient underwent the surgical removal of the osteosarcoma lesion in the right proximal humerus and the humeral head prosthesis replacement on Apr. 27, 2013. […] Doxorubicin and ifosfamide were administered after the surgery. […] Bone marrow support therapy was given during the intermission of chemotherapy until the end of chemotherapy in August 2013. […] 1. […] 2. There were enlarged lymph nodes in the right axilla with slight increase in metabolism. The patient was treated by being administered with CIK cells via infusion after the completion of the chemotherapy. At the end of 2015, the patient experienced pain in the upper part of the left humerus, no obvious mass was seen, and the patient suffered from the recurrent pain. […] 1. There was no sign of tumor recurrence in the right humerus after the surgery of the osteosarcoma of the right humerus and the comprehensive treatment, and there was a stripe-shaped hypermetabolic lesion in the upper part of the left humerus. 2. There was no sign of lymph node metastasis in the bilateral armpits. 3. […] On Jun. 7, 2016 and Jul. 1, 2016, the patient underwent 2 courses of doxorubicin and ifosfamide chemotherapy and the process went well. […] Microwave inactivation of the tumor of the left proximal humerus and the bone graft internal fixation was performed on Jul. 22, 2016. […]

[3] = system: osteosarcoma cell lines 143B, U2OS, MG63 and SJSA; experiment: Transwell cell migration and invasion; type: cell-based, Human; settings: 1 μM, 24 hours
Procedure: 1.2.6 Experimental analysis of Transwell cell migration and invasion: Cells were seeded at the upper end of the Transwell chamber (5×10^4 cells/well). 143B cells, U2OS cells, MG63 cells and SJSA cells were treated with 1 μM Anlotinib. A culture medium containing 2% serum was added to the upper end of the Transwell chamber (4 hours of pretreatment with 10% matrigel was required in the invasion experiment), and a culture medium containing 10% serum was added to the lower end. After 24 hours, the cells were fixed with 4% paraformaldehyde, stained with crystal violet, and photographed under microscope.

[4] = system: osteosarcoma cell lines 143B, U2OS, MG63 and SJSA; experiment: Detection of cell apoptosis by flow cytometer (Annexin-V-FITC/PI), with or without cisplatin; type: cell-based, Human; settings: 2 μM Anlotinib with 10 μM cisplatin (DDP), 24 h
Procedure: 1.2.5 Detection of cell apoptosis by flow cytometer: 143B cells, U2OS cells, MG63 cells and SJSA cells were added to the liquid culture media containing 2 μM Anlotinib (with or without 10 μM cisplatin (DDP)) for cultivation. The cells were collected after 24 h, centrifuged at 1000 r/min for 1 min, and rinsed with PBS. Afterwards, an Annexin-V-FITC/PI Cell Apoptosis Detection Kit was used to detect the apoptosis of cells. The cells were added to 100 μL of 1×Binding buffer and resuspended, 5 μL of AnnexinV-FITC and 2.5 μL of PI staining reagent were added, and the mixture was shaken and mixed evenly in the dark. The resultant was reacted at room temperature for 15 min, 300 μL of 1×Binding buffer was then added, and the resulting mixture was mixed evenly and detected by a flow cytometer. The experiment was repeated 3 times.

[5] = system: osteosarcoma cell lines 143B, U2OS, MG63 and SJSA; experiment: Detection of cell cycle by flow cytometer; type: cell-based, Human; settings: 0-4 μM, 24 h, PI staining
Procedure: 1.2.4 Detection of cell cycle by flow cytometer: 143B cells, U2OS cells, MG63 cells and SJSA cells were added to the liquid culture media containing different amount-of-substance concentrations of Anlotinib (0 μM, 1 μM, 2 μM, and 4 μM) for cultivation. The cells were collected after 24 h, centrifuged at 1000 r/min for 1 min, rinsed with PBS, and fixed with 70% ethanol. The PI staining solution of cell cycle analysis kit was added, the mixture was incubated in the dark at room temperature for 15 min, and the detection was carried out by using a flow cytometer. Images were analyzed by using ModFit software. The experiment was repeated 3 times.

[6] = system: U2OS cells; experiment: Detection of cell proliferation by cck-8; type: cell-based; settings: Homo sapiens
Procedure: (§1) 1.2.1 Cell culture: Osteosarcoma cell lines 143B, […], MG63 and SJSA were cultured in DMEM complete culture medium (containing fetal bovine serum with a volume fraction of 10%, 0.1 g/L streptomycin, and 100 U/mL penicillin), and was incubated in a thermostatic incubator containing 5% CO2 (volume fraction) at 37° C. When about 85% cell confluence was reached, the cells were detached by using a mixed cell detachment solution containing 0.02% EDTA and 0.25% trypsin, and then the cells were collected, centrifuged at 1000 r/min for 3 min, and subcultured.
(§2) 1.2.2 Detection of cell proliferation by cck-8: 143B cells, U2OS cells, MG63 cells and SJSA cells in logarithmic growth phase were collected, rinsed with PBS, counted, and dispensed into separate tubes. The cells were seeded into a 96-well plate (3000 cells/well) and cultured for 24 h to allow for cell attachment. […] 100 μL of cck-8 reagent diluted 10-fold with DMEM culture medium was added into each well and the resulting mixture was incubated at 37° C. for 45 minutes. The absorbance value of the resultant in each well at 450 nm was detected by using a microplate reader.

[7] = system: MG63 cells; experiment: Detection of cell proliferation by cck-8; type: cell-based; settings: Homo sapiens, MG-63
Procedure: as §1, §2

[8] = system: 143B cells; experiment: Detection of cell proliferation by cck-8; type: cell-based; settings: Homo sapiens
Procedure: as §1, §2

[9] = system: SJSA cells; experiment: Detection of cell proliferation by cck-8; type: cell-based; settings: Homo sapiens
Procedure: as §1, §2

[10] = system: osteosarcoma cell lines 143B, U2OS, MG63 and SJSA; experiment: Anti-proliferation effect on osteosarcoma cell lines (statement for all four lines); type: cell-based, Human; settings: 0, 1, 2 or 4 μM for 24 or 48 hours; time- and concentration-dependent
Procedure: 1.2.2 Detection of cell proliferation by cck-8: 143B cells, U2OS cells, MG63 cells and SJSA cells in logarithmic growth phase were collected, rinsed with PBS, counted, and dispensed into separate tubes. The cells were seeded into a 96-well plate (3000 cells/well) and cultured for 24 h to allow for cell attachment. Anlotinib with different amount-of-substance concentrations (0 μM, 1 μM, 2 μM, 4 μM, 8 μM, 16 μM, 32 μM, and 64 μM) were then added, the mixture was incubated for 24 h, and then the detection was carried out. 100 μL of cck-8 reagent diluted 10-fold with DMEM culture medium was added into each well and the resulting mixture was incubated at 37° C. for 45 minutes. The absorbance value of the resultant in each well at 450 nm was detected by using a microplate reader.
In order to evaluate the anti-proliferation effects of Anlotinib on osteosarcoma cell lines 143B, U2OS, MG63 and SJSA, the osteosarcoma cell lines were treated with Anlotinib with a concentration of 0 μM, 1 μM, 2 μM or 4 μM for 24 hours or 48 hours.

[11] = system: osteosarcoma of the right proximal fibula; experiment: Clinical case Example 8: patient; type: in vivo; settings: prior chemotherapy, 1 cycle
Procedure: A patient experienced a pain on the outer side of the right lower leg with no obvious predisposing cause for 6 months. The pain was persistent and unrelated to movements such as walking, and could not be alleviated after rest. The patient was neither diagnosed nor treated, and the pain was gradually aggravated and occurred at night. […] The patient went for consultation on Dec. 1, 2017, and an incision biopsy of the tumor of the limb was performed on December 5. […] On Apr.
Methotrexate chemotherapy was given for 1 day on Dec. 12, 2017, Feb. 7, 2018, May 4, 2018 and Jul. 6, 2018, respectively. IFO chemotherapy (1 cycle) was given during the following time periods: from Dec. 16, 2017 to […], from Mar. 2, 2018 to Mar. 7, 2018 (the therapeutic effect was evaluated as SD), from Apr. 18, 2018 to Apr. 22, 2018 (platelet reduction (Grade IV)), from Jun. 14, 2018 to Jun. 18, 2018 (the therapeutic effect was evaluated as SD), from Aug. 30, 2018 to Sep. 3, 2018 (the therapeutic effect was evaluated as PD). Cisplatin and amrubicin chemotherapy (1 cycle) was respectively given during the following time periods: from Jan. 17, 2018 to Jan. 20, 2018, from May 24, 2018 to May 27, 2018, and from Jul. 20, 2018 to Jul. 23, 2018 (the therapeutic effect was evaluated as SD). […]

Q: `CN(Cc1cnc2nc(N)nc(N)c2n1)c1ccc(C(=O)N[C@@H](CCC(=O)O)C(=O)O)cc1` [Methotrexate, methotrexate] was tested. Which “bone marrow suppression grade” value ([1]; human, in vivo) did it give?
A: Its value is “Grade II”.

Q: And the “bone marrow suppression grade” value [2]?
A: Its value is “Grade I to II”.

Q: Which results are given for `COc1cc2c(Oc3ccc4[nH]c(C)cc4c3F)ccnc2cc1OCC1(N)CC1` [Anlotinib, 1-[[[4-(4-fluoro-2-methyl-1H-indol-5-yl)oxy-6-methoxyquinolin-7-yl]oxy]methyl]cyclopropylamine]?
A: migration of osteosarcoma cell lines [3]: greatly inhibited; invasion of osteosarcoma cell lines ([3]; matrigel): greatly inhibited; apoptosis of osteosarcoma cell lines caused by cisplatin [4]: significantly enhancing; cell cycle arrest [5]: G2/M cycle arrest occurred in cells; cells in G1 phase [5]: decrease of cells in G1 phase; IC50 ([6]; 24 h, read-out: IC50 (24 h)): 41.3 µM; IC50 ([6]; 48 h, read-out: IC50 (48 h)): 25.9 µM; IC50 ([7]; MG63, 24 h, read-out: IC50 (24 h)): 30.1 µM; IC50 ([7]; MG63, 48 h, read-out: IC50 (48 h)): 14.8 µM; IC50 ([8]; 24 h, read-out: IC50 (24 h)): 20.8 µM; IC50 ([8]; 48 h, read-out: IC50 (48 h)): 7.95 µM; IC50 ([9]; 24 h, read-out: IC50 (24 h)): 25.7 µM; IC50 ([9]; 48 h, read-out: IC50 (48 h)): 10.2 µM; effect on the proliferation of the osteosarcoma cell lines [10]: significant inhibitory effect

Q: Which tolerability of chemotherapy ([1]; prior chemotherapy, 1 cycle, Jan. 19, 2017) does the source give for `O=P1(NCCCl)OCCCN1CCCl` (centres unmarked) [Ifosfamide, ifosfamide] here?
A: The tolerability of chemotherapy was “no obvious gastrointestinal reaction and bone marrow suppression”.

Q: What about the leucocytopenia grade ([1]; prior chemotherapy, Aug. 16, 2017) of the same molecule?
A: The leucocytopenia grade was “Grade IV”.

Q: And the leucocytopenia grade ([1]; prior chemotherapy, Jun. 19, 2017 (after doxorubicin and cisplatin Jun. 4, 2017))?
A: Its leucocytopenia grade is “Grade IV”.

Q: And the leucocytopenia grade ([1]; prior chemotherapy, Mar. 10, 2017)?
A: The leucocytopenia grade was “Grade II”.

Q: And the leucocytopenia grade ([1]; prior chemotherapy, May 3, 2017)?
A: The leucocytopenia grade was “Grade IV”.

Q: And the platelet reduction grade ([11]; Apr. 18, 2018 to Apr. 22, 2018)?
A: Its platelet reduction grade is “Grade IV”.

Q: What about the therapeutic effect ([11]; Aug. 30, 2018 to Sep. 3, 2018) of the same molecule?
A: Its therapeutic effect is “PD (progressive disease, specifically means that the sum of the diameters of the tumor target lesions increases by 20% or more from the baseline level)”.

— patent publication US20200316053A1, “APPLICATION OF NOVEL TYROSINE KINASE INHIBITOR, ANLOTINIB, IN OSTEOSARCOMA AND CHONDROSARCOMA” (CHIA TAI TIANQING PHARMACEUTICAL GROUP CO., LTD., priority 2018, published 2020)
